Experimental data taken from the NIST ThermoML archive (doi:10.1016/j.fluid.2015.07.030).

Test: xn = mol fraction of the nth substance listed
Conditions: 95.99 kPa, Liquid, Vibrating tube method

OCCOCCOCCO [triethylene glycol] + O
mass density [kg/m3]
Conditions | 293.15 K | 298.15 K | 303.15 K | 308.15 K | 313.15 K
x2 = 0 | 1123.12 | 1119.01 | 1114.79 | 1110.81 | 1106.7
x2 = 0.1056 | 1122.61 | 1118.31 | 1114.09 | 1109.99 | 1105.84
x2 = 0.2069 | 1121.88 | 1117.53 | 1113.37 | 1109.16 | 1105.25
x2 = 0.3103 | 1120.77 | 1116.52 | 1112.38 | 1108.31 | 1104.34
x2 = 0.4843 | 1118.69 | 1114.57 | 1110.18 | 1106.08 | 1101.98
x2 = 0.5016 | 1118.43 | 1114.12 | 1109.85 | 1105.68 | 1101.69
x2 = 0.5952 | 1116.29 | 1111.83 | 1107.57 | 1103.19 | 1099.18
x2 = 0.6015 | 1116.07 | 1111.61 | 1107.35 | 1102.97 | 1098.96
x2 = 0.6787 | 1112.29 | 1107.99 | 1103.97 | 1099.53 | 1095.62
x2 = 0.7835 | 1102.7 | 1098.52 | 1094.74 | 1090.2 | 1086.93
x2 = 0.8183 | 1096.95 | 1092.99 | 1089.46 | 1084.98 | 1081.89
x2 = 0.8472 | 1090.49 | 1086.81 | 1083.32 | 1078.84 | 1076.08
x2 = 0.8719 | 1083.52 | 1080.07 | 1076.78 | 1072.37 | 1069.93
x2 = 0.8925 | 1076.28 | 1073.04 | 1069.94 | 1065.64 | 1063.47
x2 = 0.9106 | 1068.64 | 1065.62 | 1062.7 | 1058.54 | 1056.6
x2 = 0.9254 | 1061.24 | 1058.41 | 1055.66 | 1051.66 | 1049.89
x2 = 0.9303 | 1058.23 | 1055.05 | 1052.47 | 1049.13 | 1047.41
x2 = 0.939 | 1053.42 | 1050.36 | 1048.08 | 1044.27 | 1042.63
x2 = 0.951 | 1045.41 | 1042.85 | 1040.42 | 1036.82 | 1035.27
x2 = 0.9599 | 1037.69 | 1036.35 | 1034.04 | 1030.61 | 1029.11
x2 = 0.9707 | 1029.87 | 1027.7 | 1025.28 | 1022.68 | 1019.99
x2 = 0.979 | 1021.78 | 1019.75 | 1017.72 | 1014.8 | 1013.28
x2 = 0.9866 | 1013.57 | 1011.61 | 1009.56 | 1007.37 | 1005.16
x2 = 0.9936 | 1005.7 | 1003.82 | 1001.99 | 999.97 | 997.49
